Source: publication PMC4245164 (ACS Chemical Biology, 2014)

Target: NLuc (Oplophorus gracilirostris, UniProt Q9GV45, A31E/A60N/A81I/F95D/I117V/K70R/L54V/L99Q/M102K/N193R/P142E/Q151K/Q38R/Q45L/V71I/Y165I)
Experiment: Biochemical NLuc enzyme assay with S16 secNLuc cell culture medium

NLuc, sequence (Q9GV45 28-196 with the stated changes): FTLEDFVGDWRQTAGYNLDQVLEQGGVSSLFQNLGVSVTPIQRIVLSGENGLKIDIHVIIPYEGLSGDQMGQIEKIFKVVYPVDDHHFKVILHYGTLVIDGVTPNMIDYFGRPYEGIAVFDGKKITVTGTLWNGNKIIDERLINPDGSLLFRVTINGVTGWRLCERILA

SMILES	IC50 [µM]
COC(=O)C1=C(C)NC(C)=C(C(=O)OC(C)C)C1c1cccc2nonc12 (centres unmarked) [isradipine]	6
CCOC(=O)C1=C(C)NC(C)=C(C(=O)OC)C1c1cccc([N+](=O)[O-])c1 (centres unmarked) [nitrendipine]	6
